Results reported in paper PMC3480796 (Indian Journal of Pharmacology, 2012).

Target: cystic fibrosis transmembrane conductance regulator (CFTR) (Homo sapiens, UniProt P13569)
Experiment: apical chloride current
Format: cell-based

Sequence of cystic fibrosis transmembrane conductance regulator (CFTR) (P13569 whole entry): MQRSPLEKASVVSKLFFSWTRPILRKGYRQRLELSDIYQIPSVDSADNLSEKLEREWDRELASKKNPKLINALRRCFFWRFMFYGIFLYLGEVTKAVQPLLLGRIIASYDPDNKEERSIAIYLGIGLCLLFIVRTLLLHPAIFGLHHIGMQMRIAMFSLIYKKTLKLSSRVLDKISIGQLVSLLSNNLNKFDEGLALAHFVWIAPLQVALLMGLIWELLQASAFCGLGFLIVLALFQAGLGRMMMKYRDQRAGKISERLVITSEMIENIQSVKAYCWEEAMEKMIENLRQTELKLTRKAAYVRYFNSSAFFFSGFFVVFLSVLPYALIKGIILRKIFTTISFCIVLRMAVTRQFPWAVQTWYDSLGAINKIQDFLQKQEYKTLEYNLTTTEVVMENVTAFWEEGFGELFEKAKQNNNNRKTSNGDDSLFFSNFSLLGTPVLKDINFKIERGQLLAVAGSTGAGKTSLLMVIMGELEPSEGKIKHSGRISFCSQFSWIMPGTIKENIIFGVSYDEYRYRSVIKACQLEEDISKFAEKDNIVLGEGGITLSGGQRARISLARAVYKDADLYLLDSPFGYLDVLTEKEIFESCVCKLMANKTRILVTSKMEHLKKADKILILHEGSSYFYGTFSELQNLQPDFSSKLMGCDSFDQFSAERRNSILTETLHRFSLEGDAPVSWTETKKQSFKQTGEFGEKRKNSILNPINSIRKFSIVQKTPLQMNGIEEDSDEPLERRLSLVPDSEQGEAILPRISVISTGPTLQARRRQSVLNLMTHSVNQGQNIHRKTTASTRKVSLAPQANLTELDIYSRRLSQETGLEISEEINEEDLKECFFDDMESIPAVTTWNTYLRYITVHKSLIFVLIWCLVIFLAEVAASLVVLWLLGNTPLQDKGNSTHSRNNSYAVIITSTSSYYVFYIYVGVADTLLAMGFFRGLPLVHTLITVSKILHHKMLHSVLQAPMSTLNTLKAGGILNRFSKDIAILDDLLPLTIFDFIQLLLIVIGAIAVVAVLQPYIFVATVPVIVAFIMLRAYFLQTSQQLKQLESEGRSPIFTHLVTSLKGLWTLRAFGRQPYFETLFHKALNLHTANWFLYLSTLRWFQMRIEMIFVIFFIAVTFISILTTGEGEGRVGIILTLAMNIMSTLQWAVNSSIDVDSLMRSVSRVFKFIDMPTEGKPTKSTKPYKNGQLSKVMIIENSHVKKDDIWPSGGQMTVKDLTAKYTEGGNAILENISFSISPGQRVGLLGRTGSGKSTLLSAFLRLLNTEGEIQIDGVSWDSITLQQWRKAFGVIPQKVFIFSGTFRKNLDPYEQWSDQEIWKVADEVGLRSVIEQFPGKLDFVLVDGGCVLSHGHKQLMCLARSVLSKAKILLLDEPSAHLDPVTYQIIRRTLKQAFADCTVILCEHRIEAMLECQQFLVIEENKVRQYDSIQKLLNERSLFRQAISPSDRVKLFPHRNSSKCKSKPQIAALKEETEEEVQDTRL

Compound `CCOC(=O)CSc1nc2ccccc2c(=O)n1-c1ccccc1C` [DQA, ethyl 2-(4-oxo-3-o-tolyl-3,4-dihydroquinazolin-2-ylthio)acetate] has an IC50 of ~20 µM.
